The source of these data is ChEMBL document CHEMBL4371025, “Discovery and evaluation of novel FAAH inhibitors in neuropathic pain model” (Bioorg Med Chem Lett, 2019).

Series [1] is described as follows: Drug level in brain of Sprague-Dawley rat at 10 mg/kg, po administered as single dose via gavage measured at 4 hrs by LC-MS/MS analysis. The conditions noted are these: read-out: Drug uptake. It is filed as ADME, organism-based.
Series [2] can be described thus: AUC (0 to 48 hrs) in plasma of Sprague-Dawley rat at 10 mg/kg, po administered as single dose via gavage by LC-MS/MS analysis. Type of series: ADME, organism-based. Details: time < 48 hr, dose 10 mg/kg, route oral.
A short description of series [3]: Drug level in plasma of Sprague-Dawley rat at 10 mg/kg, po administered as single dose via gavage measured at 4 hrs by LC-MS/MS analysis. It is filed as ADME, organism-based.
A short description of series [4]: Elimination half life in Sprague-Dawley rat at 3 mg/kg, iv or 10 mg/kg, po administered as single dose via gavage by LC-MS/MS analysis. Type of series: ADME, organism-based. As to conditions: in vivo, read-out: beta t1/2 (converted).
The target of a further series is Cytochrome P450 3A4 (Homo sapiens, UniProt P08684). The experiment in a line: Inhibition of CYP3A4 in human liver microsomes using testosterone as substrate preincubated for 5 mins followed by NADPH cofactor addition and measured after 10 mins by LC-MS/MS analysis. It is filed as ADME. (In general: Microsomes from liver hold many membrane-bound enzymes, among them those of drug oxidation.)
Cytochrome P450 3A4, sequence (P08684 whole entry): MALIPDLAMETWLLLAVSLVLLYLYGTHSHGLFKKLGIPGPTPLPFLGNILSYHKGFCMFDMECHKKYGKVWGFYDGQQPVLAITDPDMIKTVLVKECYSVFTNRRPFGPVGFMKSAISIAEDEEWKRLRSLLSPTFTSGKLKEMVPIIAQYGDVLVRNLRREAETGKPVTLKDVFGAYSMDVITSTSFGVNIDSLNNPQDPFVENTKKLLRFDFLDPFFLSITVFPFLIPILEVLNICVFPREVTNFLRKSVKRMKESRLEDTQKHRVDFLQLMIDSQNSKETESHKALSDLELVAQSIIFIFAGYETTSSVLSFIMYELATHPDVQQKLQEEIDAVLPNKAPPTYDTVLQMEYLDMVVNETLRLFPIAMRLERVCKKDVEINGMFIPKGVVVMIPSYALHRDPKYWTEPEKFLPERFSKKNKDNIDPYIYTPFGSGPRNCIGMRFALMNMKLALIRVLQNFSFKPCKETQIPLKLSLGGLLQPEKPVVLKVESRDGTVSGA

The nature of series [5]: Drug level in brain of Sprague-Dawley rat at 10 mg/kg, po administered as single dose via gavage measured at 2 hrs by LC-MS/MS analysis. It is filed as ADME, organism-based. The conditions noted are these: read-out: Drug uptake.
A short description of series [6]: AUC (0 to 48 hrs) in liver of Sprague-Dawley rat at 10 mg/kg, po administered as single dose via gavage by LC-MS/MS analysis. Type of series: ADME, organism-based. Further details: time < 48 hr, dose 10 mg/kg, route oral.
Series [7] in a line: Drug level in liver of Sprague-Dawley rat at 10 mg/kg, po administered as single dose via gavage measured at 4 hrs by LC-MS/MS analysis. As to conditions: read-out: Drug uptake. It is filed as ADME, organism-based.
In series [8] the target is T1, Fatty-acid amide hydrolase 1 (Rattus norvegicus, UniProt P97612).
T1 sequence (P97612 whole entry): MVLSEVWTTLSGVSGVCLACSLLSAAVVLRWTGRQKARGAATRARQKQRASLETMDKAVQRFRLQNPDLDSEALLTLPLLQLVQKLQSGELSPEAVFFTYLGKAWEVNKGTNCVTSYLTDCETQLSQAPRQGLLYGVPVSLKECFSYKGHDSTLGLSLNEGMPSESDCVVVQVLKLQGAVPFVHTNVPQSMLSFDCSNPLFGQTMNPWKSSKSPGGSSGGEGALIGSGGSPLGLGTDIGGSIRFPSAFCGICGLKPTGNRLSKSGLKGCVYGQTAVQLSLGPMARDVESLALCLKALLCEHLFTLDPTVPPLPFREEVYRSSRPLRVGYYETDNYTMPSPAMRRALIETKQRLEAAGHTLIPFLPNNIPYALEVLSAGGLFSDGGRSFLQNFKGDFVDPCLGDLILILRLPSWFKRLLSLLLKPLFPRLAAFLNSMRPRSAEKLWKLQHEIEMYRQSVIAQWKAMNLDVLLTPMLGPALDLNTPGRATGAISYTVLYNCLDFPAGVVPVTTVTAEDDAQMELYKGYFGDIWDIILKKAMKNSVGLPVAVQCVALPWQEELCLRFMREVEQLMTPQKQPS
In words: Inhibition of rat FFAH expressed in Escherichia coli using AAMCA as substrate incubated for 1 min measured for 50 mins by fluorescence assay.

The nature of series [9]: Drug level in liver of Sprague-Dawley rat at 10 mg/kg, po administered as single dose via gavage measured at 48 hrs by LC-MS/MS analysis. Type of series: ADME, organism-based. As to conditions: read-out: Drug uptake.
Series [10] deals with T2, Fatty-acid amide hydrolase 1 (Homo sapiens, UniProt O00519).
T2 sequence (O00519 whole entry): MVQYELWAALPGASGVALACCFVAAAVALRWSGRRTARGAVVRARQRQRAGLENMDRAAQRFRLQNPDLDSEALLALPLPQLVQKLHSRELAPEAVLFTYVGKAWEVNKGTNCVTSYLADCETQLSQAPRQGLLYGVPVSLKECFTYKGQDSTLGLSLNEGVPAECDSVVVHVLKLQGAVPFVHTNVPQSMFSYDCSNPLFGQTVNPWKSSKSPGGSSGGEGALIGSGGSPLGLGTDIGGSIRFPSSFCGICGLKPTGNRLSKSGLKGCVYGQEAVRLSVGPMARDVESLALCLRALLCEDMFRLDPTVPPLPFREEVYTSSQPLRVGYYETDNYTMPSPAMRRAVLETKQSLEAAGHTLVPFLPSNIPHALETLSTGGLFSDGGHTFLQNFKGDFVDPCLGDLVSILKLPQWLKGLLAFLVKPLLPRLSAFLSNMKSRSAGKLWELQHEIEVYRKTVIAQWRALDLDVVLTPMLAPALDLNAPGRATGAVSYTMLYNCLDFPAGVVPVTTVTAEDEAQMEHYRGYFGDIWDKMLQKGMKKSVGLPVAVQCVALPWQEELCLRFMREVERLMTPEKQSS
In words: Inhibition of human transmembrane domain deficient FFAH expressed in Escherichia coli using AAMCA as substrate incubated for 1 min measured for 50 mins by fluorescence assay.

The nature of series [11]: Drug level in plasma of Sprague-Dawley rat at 10 mg/kg, po administered as single dose via gavage measured at 8 hrs by LC-MS/MS analysis. It is filed as ADME, organism-based.
The next series deals with T3, Cytochrome P450 1A2 (Homo sapiens, UniProt P05177).
T3 sequence (P05177 whole entry): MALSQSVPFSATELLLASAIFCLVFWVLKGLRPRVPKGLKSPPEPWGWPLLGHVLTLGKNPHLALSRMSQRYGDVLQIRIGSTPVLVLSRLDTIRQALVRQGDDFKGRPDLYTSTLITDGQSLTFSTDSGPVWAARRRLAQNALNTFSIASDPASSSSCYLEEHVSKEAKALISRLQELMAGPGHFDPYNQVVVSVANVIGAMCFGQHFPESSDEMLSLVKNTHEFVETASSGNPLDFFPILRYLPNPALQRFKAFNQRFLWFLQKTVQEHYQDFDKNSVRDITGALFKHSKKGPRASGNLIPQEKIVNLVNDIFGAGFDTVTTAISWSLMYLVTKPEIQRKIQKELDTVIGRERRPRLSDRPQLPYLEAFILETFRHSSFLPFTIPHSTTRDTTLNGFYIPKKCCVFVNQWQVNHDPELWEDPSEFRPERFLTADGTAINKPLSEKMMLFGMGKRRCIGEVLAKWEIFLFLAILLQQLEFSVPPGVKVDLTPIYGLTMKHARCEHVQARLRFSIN
In words: Inhibition of CYP1A2 in human liver microsomes using phenacetin as substrate preincubated for 5 mins followed by NADPH cofactor addition and measured after 10 mins by LC-MS/MS analysis. It is filed as ADME.

A short description of series [12]: Drug level in brain of Sprague-Dawley rat at 10 mg/kg, po administered as single dose via gavage measured at 8 hrs by LC-MS/MS analysis. It is filed as ADME, organism-based. The conditions noted are these: read-out: Drug uptake.
Series [13] can be described thus: AUC (0 to 48 hrs) in brain of Sprague-Dawley rat at 10 mg/kg, po administered as single dose via gavage by LC-MS/MS analysis. Type of series: ADME, organism-based. Details: dose 10 mg/kg, time < 48 hr, route oral.
Series [14] can be described thus: Elimination half life in Sprague-Dawley rat at 3 mg/kg, iv administered as single dose by LC-MS/MS analysis. Type of series: ADME, organism-based. The conditions noted are these: in vivo, read-out: beta t1/2 (converted).
A short description of series [15]: Drug level in brain of Sprague-Dawley rat at 10 mg/kg, po administered as single dose via gavage measured at 48 hrs by LC-MS/MS analysis. It is filed as ADME, organism-based. The conditions noted are these: read-out: Drug uptake.
A short description of series [16]: Drug level in plasma of Sprague-Dawley rat at 10 mg/kg, po administered as single dose via gavage measured at 32 hrs by LC-MS/MS analysis. Type of series: ADME, organism-based.

One may read the AUC(0-t) as the area under the concentration-time curve up to a stated or last time point. As a reminder, the IC50 is the midpoint of a concentration-inhibition curve. With `Nc1ccc(C(=O)N[C@H]2CC/C(=C\c3cccc(Oc4ccc(C(F)(F)F)cn4)c3)CC2)cn1` (stereo not drawn), the values for the concentration at 4 h in series [1], in [3] and in series [7] were 4.5 µM, 8.6 µM and 69.7 µM, respectively. Besides, the values for the AUC(0-t) at 48 h in series [2], in [6] and in series [13] were 212 µM·h, 1950 µM·h and 135 µM·h, respectively. In addition, the half-life in [4] and in series [14] was 9.2 h throughout. Besides, the IC50 at Cytochrome P450 3A4 is above 12500 nM; in [8], 11.6 nM; in [10] it was 1.2 nM; against Cytochrome P450 1A2, above 12500 nM. In series [5], the concentration at 2 h was 5.1 µM. For the same compound, the concentration at 48 h in [9] is 16.2 µM; in series [15] it was 0.7 µM. Moreover, the concentration at 8 h in series [11] was found to be 8.2 µM; in series [12], 5.2 µM. In series [16], this compound showed a concentration at 32 h of 2.2 µM.
`Cc1cc(C(=O)N[C@H]2CC/C(=C\c3cccc(Oc4ccc(C(F)(F)F)cn4)c3)CC2)cnc1N` (stereo not drawn): the concentration at 4 h was found to be 3.1 µM in [1], 4.8 µM in series [3] and 37 µM in series [7]. Further, the results for the AUC(0-t) at 48 h in series [2], in series [6] and in [13] were 166 µM·h, 1130 µM·h and 80.1 µM·h, respectively. Further, the half-life in series [4] and in series [14] was 17 h in each case. The IC50 is above 12500 nM on Cytochrome P450 3A4, 9.2 nM in series [8], 1.3 nM in series [10] and above 12500 nM against Cytochrome P450 1A2. Moreover, in [5], the concentration at 2 h amounted to 2 µM. The concentration at 48 h is 9.1 µM in [9] and 0.6 µM in series [15]. Further, the figures for the concentration at 8 h in [11] and in series [12] were 5.3 µM and 3.2 µM, respectively. Besides, the concentration at 32 h in [16] turned out to be 3 µM.
Turning to `Nc1ncc(C(=O)N[C@H]2CC/C(=C\c3cccc(Oc4ccc(C(F)(F)F)cn4)c3)CC2)cn1` (stereo not drawn), the concentration at 4 h in series [1] came out at 6.3 µM; in series [3], 7.8 µM; in [7], 38 µM. Besides, the AUC(0-t) at 48 h in series [2] is 237 µM·h; in series [6] it was 1020 µM·h; in series [13], 192 µM·h. Besides, the half-life in series [4] and in series [14] was 17.2 h in each case. Moreover, the IC50 is above 12500 nM at Cytochrome P450 3A4, 6.2 nM in series [8], 0.6 nM in series [10] and above 12500 nM against Cytochrome P450 1A2. Also, in series [5], the concentration at 2 h came to 6.5 µM. Besides, the concentration at 48 h in [9] stood at 8.9 µM; in [15] it was 1.1 µM. In addition, the concentration at 8 h worked out at 7.3 µM in series [11] and 7.2 µM in series [12]. The same compound registered a concentration at 32 h in [16] of 2.7 µM.
Turning to `O=C(N[C@H]1CC/C(=C\c2cccc(Oc3ccc(C(F)(F)F)cn3)c2)CC1)c1cccnc1` (stereo not drawn), the concentration at 4 h in series [1] came out at 6 µM; in [3], 3.3 µM; in [7] it was 43 µM. The results for the AUC(0-t) at 48 h in series [2], in [6] and in series [13] were 55 µM·h, 580 µM·h and 84 µM·h, respectively. Besides, the half-life in series [4] and in series [14] was 5.1 h each time. For the same compound, the values for the IC50 (at Cytochrome P450 3A4; in series [10]; against Cytochrome P450 1A2) were 400 nM, 0.7 nM and above 10000 nM, respectively. Moreover, the concentration at 2 h in [5] came out at 6.1 µM. For the same compound, the figures for the concentration at 8 h in [11] and in series [12] were 3 µM and 4.7 µM, respectively.
